In patent US11925629B2, “Heterocyclic inhibitors of ERK1 and ERK2 and their use in the treatment of cancer” (Asana Biosciences, LLC, priority 2015, dated 2024):
Read-outs that look alike come from different tables or passages of the source.

Columns and labels:
Assay type in all cases: cell-based, human
[1] = test system: HT-29 (colorectal carcinoma, B-RafV600E) cells; assay: Cell proliferation (Alamar Blue) assay, HT-29
In short: (§1)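 A 72 h exposure to compound (3-fold series, typically 0.0005 to 10 uM) of cells seeded at 5000/well precedes a 1-3 h Alamar Blue (1×) incubation. Growth inhibition is quantified by fluorescence and fitted to give IC50.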

[2] = test system: HCT116 (colorectal carcinoma, K Ras G13D) cells; assay: Cell proliferation (Alamar Blue) assay, HCT116
In short: as §1

[3] = test system: phosphorylation of RSK1(S380) (the downstream target of ERK1/2); assay: Phospho-RSK1(S380) ELISA assay in HT-29 cells; conditions: phospho-RSK1(S380), read-out: Mechanistic Cell Assay RSK1 Phos HT29 IC50
In short: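 IC50 values derive from a variable-slope sigmoidal fit of sandwich-ELISA signal (450 nm) for RSK1 Ser380 phosphorylation. The cells were B-RafV600E HT-29 colorectal line, exposed to serially diluted compound for 2 h after overnight seeding, then lysed at 4° C.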

[4] = Homo sapiens, HCT-116, HCT116 cells
[5] = Homo sapiens, HT-29, HT29 cells

## Cc1cnc(NC2CCCOC2)nc1-n1ccc(C(=O)N[C@H](CO)c2cccc(Cl)c2)c1 (stereo partly drawn) [Example 152, N-((S)-1-(3-chlorophenyl)-2-hydroxy-ethyl)-1-(5-methyl-2-((tetrahydro-2H-pyran-3-yl)amino)pyrimidin-4-yl)-1H-pyrrole-3-carboxamide]
[1]; HT29 cells
  IC50: 100 to 250 nM
[2]; [4]
  IC50: 500 to 2500 nM
[3]; HT29 cells
  IC50: 100 to 250 nM

## COc1cc(Nc2ncc(C)c(-n3ccc(C(=O)NC(CO)c4ccccc4)c3)n2)ccc1F (stereo not drawn) [Example 154, 1-(2-((4-fluoro-3-methoxy-phenyl)amino)-5-methyl-pyrimidin-4-yl)-N-(2-hydroxy-1-phenylethyl)-1H-pyrrole-3-carboxamide]
[1]; [5]
  IC50: 500 to 2500 nM
[2]; [4]
  IC50: 100 to 250 nM
[3]; [5]
  IC50: 250 to 500 nM

## Cc1cnc(Nc2ccc(F)cc2)nc1-n1cnc(C(=O)NC(CO)c2cccc(Cl)c2)c1 (stereo not drawn) [Example 155, N-(1-(3-chlorophenyl)-2-hydroxy-ethyl)-1-(2-((4-fluoro-phenyl)amino)-5-methyl-pyrimidin-4-yl)-1H-imidazole-4-carboxamide]
[1]; [5]
  IC50: 250 to 500 nM
[2]; [4]
  IC50: 500 to 2500 nM
[3]; [5]
  IC50: 100 to 250 nM

## Cc1cnc(NC2CCCOC2)nc1-n1ccc(C(=O)N[C@H](CO)c2cccc(Cl)c2)c1 (stereo partly drawn) [Example 156, N-((S)-1-(3-chloro-phenyl)-2-hydroxy-ethyl)-1-(5-methyl-2-((tetrahydro-2H-pyran-3-yl)amino)-pyrimidin-4-yl)-1H-pyrrole-3-carboxamide]
[1]; HT29 cells
  IC50: 250 to 500 nM
[2]; HCT116 cells
  IC50: 500 to 2500 nM
[3]; HT29 cells
  IC50: 250 to 500 nM

## Cc1cnc(NC2CCOC2)nc1-n1ccc(C(=O)N[C@H](CO)c2ccc(F)c(Cl)c2)c1 (stereo partly drawn) [Example 157, N-((S)-1-(3-chloro-4-fluorophenyl)-2-hydroxy-ethyl)-1-(5-methyl-2-((tetrahydro-furan-3-yl)amino)pyrimidin-4-yl)-1H-pyrrole-3-carboxamide]
[1]; [5]
  IC50: 250 to 500 nM
[2]; [4]
  IC50: 500 to 2500 nM
[3]; [5]
  IC50: 250 to 500 nM

## CC(=O)NCC(NC(=O)c1ccn(-c2nc(Nc3ccc4c(c3)OC(F)(F)O4)ncc2C)c1)c1cccc(Cl)c1 (stereo not drawn) [Example 158, N-(2-acetamido-1-(3-chloro-phenyl)-ethyl)-1-(2-((2,2-difluoro-benzo[d][1,3]dioxol-5-yl)-amino)-5-methyl-pyrimidin-4-yl)-1H-pyrrole-3-carboxamide]
[1]; [5]
  IC50: 500 to 2500 nM
[2]; [4]
  IC50: 500 to 2500 nM
[3]; [5]
  IC50: > 2500 nM

## Cc1cnc(Nc2cccc3c2OC(F)(F)O3)nc1-n1ccc(C(=O)NC(CO)c2cccc(Cl)c2)c1 (stereo not drawn) [Example 160, N-(1-(3-chloro-phenyl)-2-hydroxy-ethyl)-1-(2-((2,2-difluoro-benzo[d][1,3]dioxol-4-yl)amino)-5-methyl-pyrimidin-4-yl)-1H-pyrrole-3-carboxamide]
[1]; [5]
  IC50: > 2500 nM
[2]; [4]
  IC50: > 2500 nM
[3]; [5]
  IC50: 500 to 2500 nM

## Cc1cnc(N[C@H]2CCOC2)nc1-n1ccc(C(=O)N[C@H](CO)c2cccc(Cl)c2)c1 [Example 161, N-((S)-1-(3-chlorophenyl)-2-hydroxy-ethyl)-1-(5-methyl-2-(((S)-tetra-hydrofuran-3-yl)amino)pyrimidin-4-yl)-1H-pyrrole-3-carboxamide]
[1]; [5]
  IC50: ≤ 100 nM
[2]; [4]
  IC50: 250 to 500 nM
[3]; [5]
  IC50: ≤ 100 nM

## Cc1cnc(N[C@@H]2CCOC2)nc1-n1ccc(C(=O)N[C@H](CO)c2cccc(Cl)c2)c1 [Example 162, N-((S)-1-(3-chlorophenyl)-2-hydroxy-ethyl)-1-(5-methyl-2-(((R)-tetra-hydrofuran-3-yl)amino)pyrimidin-4-yl)-1H-pyrrole-3-carboxamide]
[1]; [5]
  IC50: 100 to 250 nM
[2]; [4]
  IC50: 500 to 2500 nM
[3]; [5]
  IC50: ≤ 100 nM

## Cc1cnc(Nc2ccc(F)cc2)cc1-n1ccc(C(=O)NC(CN)c2ccc(F)c(Cl)c2)c1 (stereo not drawn) [Example 164, N-(2-amino-1-(3-chloro-4-fluoro-phenyl)ethyl)-1-(2-((4-fluorophenyl)-amino)-5-methyl-pyridin-4-yl)-1H-pyrrole-3-carboxamide]
[1]; [5]
  IC50: 500 to 2500 nM
[2]; [4]
  IC50: > 2500 nM
[3]; [5]
  IC50: 500 to 2500 nM

## Cc1cnc(NC2CCOC2)cc1-n1ccc(C(=O)NC(CO)c2cccc(Cl)c2)c1 (stereo not drawn) [Example 165, N-(1-(3-chloro-phenyl)-2-hydroxy-ethyl)-1-(5-methyl-2-((tetra-hydrofuran-3-yl)amino)pyridin-4-yl)-1H-pyrrole-3-carboxamide]
[1]; [5]
  IC50: > 2500 nM
[2]; [4]
  IC50: > 2500 nM
[3]; [5]
  IC50: 500 to 2500 nM

## Cc1cnc(Nc2ccc(F)cc2Cl)nc1-n1cnc(C(=O)NC(CO)c2cccc(Cl)c2)c1 (stereo not drawn) [Example 166, 1-(2-((2-chloro-4-fluorophenyl)amino)-5-methyl-pyrimidin-4-yl)-N-(1-(3-chlorophenyl)-2-hydroxy-ethyl)-1H-imidazole-4-carboxamide]
[1]; [5]
  IC50: 500 to 2500 nM
[2]; [4]
  IC50: > 2500 nM
[3]; [5]
  IC50: 250 to 500 nM

## CC[C@H](CO)Nc1ncc(C)c(-n2ccc(C(=O)NC(CO)c3cccc(Cl)c3)c2)n1 (stereo partly drawn) [Example 167, N-(1-(3-chloro-phenyl)-2-hydroxy-ethyl)-1-(2-(((R)-1-hydroxy-butan-2-yl)amino)-5-methyl-pyrimidin-4-yl)-1H-pyrrole-3-carboxamide]
[1]; [5]
  IC50: 500 to 2500 nM
[2]; [4]
  IC50: > 2500 nM
[3]; [5]
  IC50: 500 to 2500 nM

## CC[C@H](CO)Nc1cc(-n2cnc(C(=O)NC(CO)c3cccc(Cl)c3)c2)c(Cl)cn1 (stereo partly drawn) [Example 168, 1-(5-chloro-2-(((R)-1-hydroxybutan-2-yl)amino)pyridin-4-yl)-N-(1-(3-chlorophenyl)-2-hydroxyethyl)-1H-imidazole-4-carboxamide]
[1]; [5]
  IC50: > 2500 nM
[2]; [4]
  IC50: > 2500 nM
[3]; [5]
  IC50: 500 to 2500 nM

## Cc1cnc(Nc2ccc(F)cc2Cl)nc1-n1ccc(C(=O)NC(CN)c2cccc(Cl)c2)c1 (stereo not drawn) [Example 169, N-(2-amino-1-(3-chlorophenyl)ethyl)-1-(2-((2-chloro-4-fluorophenyl)amino)-5-methylpyrimidin-4-yl)-1H-pyrrole-3-carboxamide]
[1]; [5]
  IC50: 250 to 500 nM
[2]; [4]
  IC50: 500 to 2500 nM
[3]; [5]
  IC50: 500 to 2500 nM

## O=C(N[C@H](CO)c1cccc(Cl)c1)c1cn(-c2ccnc(NC3CCOC3)c2)cn1 (stereo partly drawn) [Example 170, N-((S)-1-(3-chlorophenyl)-2-hydroxyethyl)-1-(2-((tetrahydrofuran-3-yl)amino)pyridin-4-yl)-1H-imidazole-4-carboxamide]
[1]; [5]
  IC50: 500 to 2500 nM
[2]; [4]
  IC50: > 2500 nM
[3]; [5]
  IC50: > 2500 nM

## Cc1cnc(Nc2cccnc2)cc1-n1ccc(C(=O)NC(CO)c2ccc(F)c(Cl)c2)c1 (stereo not drawn) [Example 171, N-(1-(3-chloro-4-fluorophenyl)-2-hydroxyethyl)-1-(5-methyl-2-(pyridin-3-ylamino)pyridin-4-yl)-1H-pyrrole-3-carboxamide]
[1]; [5]
  IC50: 500 to 2500 nM
[2]; [4]
  IC50: > 2500 nM
[3]; [5]
  IC50: > 2500 nM

## Cc1cnc(Nc2ccc3c(c2)OCO3)nc1-n1ccc(C(=O)NC(CO)c2ccc(F)cc2)c1 (stereo not drawn) [Example 172, 1-(2-(benzo[d][1,3]dioxol-5-ylamino)-5-methylpyrimidin-4-yl)-N-(1-(4-fluorophenyl)-2-hydroxyethyl)-1H-pyrrole-3-carboxamide]
[1]; [5]
  IC50: 500 to 2500 nM
[2]; [4]
  IC50: 250 to 500 nM
[3]; [5]
  IC50: 100 to 250 nM

## Cc1cnc(Nc2ccc3c(c2)CCCO3)nc1-n1ccc(C(=O)NC(CO)c2ccccc2)c1 (stereo not drawn) [Example 173, 1-(2-(chroman-6-ylamino)-5-methylpyrimidin-4-yl)-N-(2-hydroxy-1-phenylethyl)-1H-pyrrole-3-carboxamide]
[1]; [5]
  IC50: 100 to 250 nM
[2]; [4]
  IC50: 100 to 250 nM
[3]; [5]
  IC50: 100 to 250 nM

## Cc1cnc(NC2CCNC2)nc1-n1ccc(C(=O)N[C@H](CO)c2cccc(Cl)c2)c1 (stereo partly drawn) [Example 174, N-((S)-1-(3-chlorophenyl)-2-hydroxyethyl)-1-(5-methyl-2-(pyrrolidin-3-ylamino)pyrimidin-4-yl)-1H-pyrrole-3-carboxamide]
[1]; [5]
  IC50: > 2500 nM
[2]; [4]
  IC50: > 2500 nM
[3]; [5]
  IC50: > 2500 nM

## Cc1cnc(Nc2ccc(F)c(N3CCOCC3)c2)nc1-n1ccc(C(=O)NC(CO)c2cccc(Cl)c2)c1 (stereo not drawn) [Example 175, N-(1-(3-chlorophenyl)-2-hydroxyethyl)-1-(2-((4-fluoro-3-morpholinophenyl)amino)-5-methylpyrimidin-4-yl)-1H-pyrrole-3-carboxamide]
[1]; [5]
  IC50: ≤ 100 nM
[2]; [4]
  IC50: 250 to 500 nM
[3]; [5]
  IC50: 100 to 250 nM

## O=C(NC(CO)c1cccc(Cl)c1)c1ccn(-c2ccnc(Nc3ccc4c(c3)OC(F)(F)O4)n2)c1 (stereo not drawn) [Example 176, N-(1-(3-chlorophenyl)-2-hydroxyethyl)-1-(2-((2,2-difluorobenzo[d][1,3]dioxol-5-yl)amino)pyrimidin-4-yl)-1H-pyrrole-3-carboxamide]
[1]; [5]
  IC50: 500 to 2500 nM
[2]; [4]
  IC50: > 2500 nM
[3]; [5]
  IC50: 500 to 2500 nM

## Cc1cnc(Nc2ccc(F)cc2)nc1-n1cnc(C(=O)NC(CN)c2cccc(Cl)c2)c1 (stereo not drawn) [Example 177, N-(2-amino-1-(3-chlorophenyl)ethyl)-1-(2-((4-fluorophenyl)amino)-5-methylpyrimidin-4-yl)-1H-imidazole-4-carboxamide]
[1]; [5]
  IC50: ≤ 100 nM
[2]; [4]
  IC50: 100 to 250 nM
[3]; [5]
  IC50: 100 to 250 nM

## Cc1cnc(Nc2ccc(N3CCC(N4CCNCC4)CC3)cc2)nc1-n1ccc(C(=O)NC(CO)c2ccccc2)c1 (stereo not drawn) [Example 178, N-(2-hydroxy-1-phenylethyl)-1-(5-methyl-2-((4-(4-(piperazin-1-yl)piperidin-1-yl)phenyl)amino)pyrimidin-4-yl)-1H-pyrrole-3-carboxamide]
[1]; [5]
  IC50: > 2500 nM
[2]; [4]
  IC50: 500 to 2500 nM
[3]; [5]
  IC50: 250 to 500 nM
